The record followed here is ChEMBL document CHEMBL1152881, “A heterocyclic molecule with significant activity against dengue virus” (Bioorg Med Chem Lett, 2009).

Structures are written as SMILES. Values after ≈ are worked out from the molar mass of the structure shown. Active and inactive are the calls of the source. No cut-off for these calls is given here.

The CC50 is the concentration at which the toxic effect on the cells reaches its halfway point. Broadly, the EC90 is the point of the concentration-response curve where the effect stands at 90%. The term EC50 denotes the midpoint of the concentration-response curve.

Series [1] can be described thus: Cytotoxicity against african green monkey Vero cells. It is filed as cell-based. As to conditions: chlorocebus sabaeus.
In series [2] the test system is dengue virus type 2. Nature of the series: Antiviral activity against Dengue virus type 2 New Guinea C infected in african green monkey Vero cells assessed as inhibition of virus-induced cytopathic effect by viral yield reduction assay. It is filed as functional.
A short description of series [3]: (§1) Therapeutic index, ratio of CC50 for african green monkey Vero cells to EC50 for Dengue virus type 2. The format is cell-based. As to conditions: read-out: TI.
Series [4] deals with dengue virus type 2. The experiment in a line: Antiviral activity against Dengue virus type 2 New Guinea C infected in african green monkey Vero cells assessed as inhibition of virus-induced cytopathic effect. It is filed as functional, organism-based.
Series [5] in a line: as §1. It is filed as cell-based. As to conditions: read-out: TI. The source holds these as a separate data set.
In a further series the test system is Yellow fever virus. The experiment in a line: Antiviral activity against Yellow fever virus 17D by viral yield reduction assay. The format is functional, organism-based.
The test system of series [6] is dengue virus type 2. The experiment in a line: Antiviral activity against Dengue virus type 2 New Guinea C infected in african green monkey Vero cells by neutral red uptake assay. The format is functional, organism-based.
A short description of series [7]: as §1. The format is cell-based. The note with it: read-out: TI. The source holds these as a separate data set.

In the case of `O=C(O)c1cnc2c(c1O)c(=O)n(Cc1ccccc1)c(=O)n2Cc1ccccc1`, the CC50 (in series [1]; in the series with dengue virus type 2 [2]) was more than 100 µg/mL throughout. Moreover, in the series on dengue virus type 2 [2], the EC90 was determined as 3.8 µg/mL (≈ 9.42 µM). Also, the figures for the selectivity ratio in series [3], in series [5] and in series [7] were more than 16, more than 18 and more than 26, respectively. Further, the figures for the EC50 in the series on dengue virus type 2 [4] and in the series on dengue virus type 2 [6] were 5.7 µg/mL (≈ 14.1 µM) and 6.3 µg/mL (≈ 15.6 µM), respectively. Moreover, in the series with Yellow fever virus, the result was Active.
